According to ChEMBL document CHEMBL1201862, “PubChem BioAssay data set” (2004):
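Step 1: Grow cells in 96-well plates. Step 2: Expose to compound for 48 hours at 5 concentrations. Step 3: Interpolate endpoints linearly; if unreached, use highest concentration. GI50: concentration for 50% inhibition of growth.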 Activity calls are given as the source filed them. Rule as the data show it: active = GI50 up to about 1.1 µM and inactive = higher.

Key:
Assay in all cases: DTP human tumour cell line panel, 48 h
NCI-H23 = test system: NCI-H23
RPMI-8226 = test system: RPMI-8226
COLO 205 = test system: COLO 205
MOLT-4 = test system: MOLT-4
LOX IMVI = test system: LOX IMVI
SF-268 = test system: SF-268
NCI/ADR-RES = test system: NCI/ADR-RES
TK-10 = test system: TK-10
M14 = test system: M14
CCRF-CEM = test system: CCRF-CEM
IGROV-1 = test system: IGROV-1
HCC 2998 = test system: HCC 2998
DU-145 = test system: DU-145
HCT-15 = test system: HCT-15
T47D = test system: T47D
NCI-H460 = test system: NCI-H460
SF-295 = test system: SF-295
SR = test system: SR
NCI-H522 = test system: NCI-H522
K562 = test system: K562
U-251 = test system: U-251
EKVX = test system: EKVX
NCI-H226 = test system: NCI-H226
HCT-116 = test system: HCT-116
CAKI-1 = test system: CAKI-1
ACHN = test system: ACHN
SK-MEL-5 = test system: SK-MEL-5
OVCAR-5 = test system: OVCAR-5
SF-539 = test system: SF-539
HL-60 = test system: HL-60
PC-3 = test system: PC-3
786-0 = test system: 786-0
KM12 = test system: KM12
SNB-19 = test system: SNB-19
MDA-MB-435 = test system: MDA-MB-435
SK-OV-3 = test system: SK-OV-3
UACC-257 = test system: UACC-257
A549 = test system: A549
HOP-62 = test system: HOP-62
OVCAR-3 = test system: OVCAR-3
HT-29 = test system: HT-29
Malme-3M = test system: Malme-3M
HOP-92 = test system: HOP-92
SW-620 = test system: SW-620
RXF 393 = test system: RXF 393
Hs-578T = test system: Hs-578T
SK-MEL-2 = test system: SK-MEL-2
SK-MEL-28 = test system: SK-MEL-28
SN12C = test system: SN12C
OVCAR-8 = test system: OVCAR-8
A498 = test system: A498
SNB-75 = test system: SNB-75
OVCAR-4 = test system: OVCAR-4
UO-31 = test system: UO-31
MCF7 = test system: MCF7
MDA-MB-231 = test system: MDA-MB-231
MDA-N = test system: MDA-N
UACC-62 = test system: UACC-62

Cc1ccc2c(c1)CC1(C2)Cc2ccc(C)cc2C1=O (configuration not stated)
GI50 (NCI-H23): 36.5 µM (inactive) | GI50 (RPMI-8226): 22.3 µM (inactive) | GI50 (COLO 205): 15.4 µM (inactive) | GI50 (MOLT-4): 14.9 µM (inactive) | GI50 (LOX IMVI): 20.1 µM (inactive) | GI50 (SF-268): 32 µM (inactive) | GI50 (NCI/ADR-RES): 15.9 µM (inactive) | GI50 (TK-10): 31.2 µM (inactive) | GI50 (M14): 20.2 µM (inactive) | GI50 (CCRF-CEM): 22.1 µM (inactive) | GI50 (IGROV-1): 36 µM (inactive) | GI50 (HCC 2998): 25.9 µM (inactive) | GI50 (DU-145): 31.9 µM (inactive) | GI50 (HCT-15): 15.6 µM | GI50 (T47D): 59.6 µM (inactive) | GI50 (NCI-H460): 23.3 µM (inactive) | GI50 (SF-295): 45.9 µM (inactive) | GI50 (SR): 12.6 µM (inactive) | GI50 (NCI-H522): 19.9 µM (inactive) | GI50 (K562): 22.8 µM (inactive) | GI50 (U-251): 37 µM (inactive) | GI50 (EKVX): 32.2 µM (inactive) | GI50 (NCI-H226): 11.5 µM (inactive) | GI50 (HCT-116): 21.2 µM (inactive) | GI50 (CAKI-1): 18.5 µM (inactive) | GI50 (ACHN): 27.7 µM (inactive) | GI50 (SK-MEL-5): 13 µM (inactive) | GI50 (OVCAR-5): 43.9 µM (inactive) | GI50 (SF-539): 26.2 µM (inactive) | GI50 (HL-60): 19 µM (inactive) | GI50 (PC-3): 27.9 µM (inactive) | GI50 (786-0): 16.8 µM (inactive) | GI50 (KM12): 23.5 µM (inactive) | GI50 (SNB-19): 61.4 µM (inactive) | GI50 (MDA-MB-435): 11.4 µM (inactive) | GI50 (SK-OV-3): 59.3 µM (inactive) | GI50 (UACC-257): 18.9 µM (inactive) | GI50 (A549): 33.3 µM (inactive) | GI50 (HOP-62): 28 µM (inactive) | GI50 (OVCAR-3): 23.9 µM (inactive) | GI50 (HT-29): 18.7 µM (inactive) | GI50 (Malme-3M): 12.5 µM (inactive) | GI50 (HOP-92): 19.5 µM (inactive) | GI50 (SW-620): 30.6 µM (inactive) | GI50 (RXF 393): 17.9 µM (inactive) | GI50 (Hs-578T): 20.7 µM (inactive) | GI50 (SK-MEL-2): 19.9 µM (inactive) | GI50 (SK-MEL-28): 42 µM (inactive) | GI50 (SN12C): 24.8 µM (inactive) | GI50 (OVCAR-8): 36.5 µM (inactive) | GI50 (A498): 36.9 µM (inactive) | GI50 (SNB-75): 18.2 µM (inactive) | GI50 (OVCAR-4): 46.5 µM (inactive) | GI50 (UO-31): 27.5 µM (inactive) | GI50 (MCF7): 24.7 µM (inactive) | GI50 (MDA-MB-231): 21.5 µM (inactive) | GI50 (MDA-N): 7.35 µM (inactive)

CC1C(c2ccc(Cl)cc2)c2cc3c(cc2OC1N1CCOCC1)OCO3 (configuration not stated)
GI50 (NCI-H23): > 100 µM (inactive) | GI50 (RPMI-8226): 34.1 µM (inactive) | GI50 (COLO 205): > 100 µM (inactive) | GI50 (MOLT-4): > 100 µM (inactive) | GI50 (LOX IMVI): > 100 µM (inactive) | GI50 (SF-268): > 100 µM (inactive) | GI50 (NCI/ADR-RES): > 100 µM (inactive) | GI50 (TK-10): > 100 µM (inactive) | GI50 (M14): 85.3 µM (inactive) | GI50 (CCRF-CEM): 92.9 µM (inactive) | GI50 (IGROV-1): > 100 µM (inactive) | GI50 (HCC 2998): > 100 µM (inactive) | GI50 (DU-145): > 100 µM (inactive) | GI50 (HCT-15): > 100 µM | GI50 (T47D): 32.4 µM (inactive) | GI50 (NCI-H460): > 100 µM (inactive) | GI50 (SF-295): 31.8 µM (inactive) | GI50 (SR): 0.931 µM (active) | GI50 (NCI-H522): 46.3 µM (inactive) | GI50 (K562): > 100 µM (inactive) | GI50 (EKVX): > 100 µM (inactive) | GI50 (HCT-116): 95.1 µM (inactive) | GI50 (CAKI-1): 31.8 µM (inactive) | GI50 (ACHN): 35.3 µM (inactive) | GI50 (SK-MEL-5): 51.3 µM (inactive) | GI50 (OVCAR-5): > 100 µM (inactive) | GI50 (SF-539): 45 µM (inactive) | GI50 (PC-3): 67.3 µM (inactive) | GI50 (786-0): 56.8 µM (inactive) | GI50 (KM12): > 100 µM (inactive) | GI50 (SNB-19): 80.9 µM (inactive) | GI50 (MDA-MB-435): 95.1 µM (inactive) | GI50 (UACC-257): 86.1 µM (inactive) | GI50 (A549): 75.7 µM (inactive) | GI50 (HOP-62): 79.4 µM (inactive) | GI50 (OVCAR-3): 85.3 µM (inactive) | GI50 (HT-29): 49.5 µM (inactive) | GI50 (SW-620): > 100 µM (inactive) | GI50 (Hs-578T): 23.9 µM (inactive) | GI50 (SK-MEL-2): 69.7 µM (inactive) | GI50 (SK-MEL-28): > 100 µM (inactive) | GI50 (SN12C): > 100 µM (inactive) | GI50 (OVCAR-8): > 100 µM (inactive) | GI50 (UACC-62): 74 µM (inactive) | GI50 (SNB-75): 44.1 µM (inactive) | GI50 (UO-31): 54.3 µM (inactive) | GI50 (MCF7): > 100 µM (inactive) | GI50 (MDA-N): > 100 µM (inactive)

FC(F)(F)C1(C(F)(F)F)C2CCC3(CC(F)(F)C(F)(F)S3)C1C2 (configuration not stated)
GI50 (NCI-H23): 35.7 µM (inactive) | GI50 (RPMI-8226): 28.2 µM (inactive) | GI50 (COLO 205): 31.5 µM (inactive) | GI50 (MOLT-4): 23.4 µM (inactive) | GI50 (LOX IMVI): 25.8 µM (inactive) | GI50 (SF-268): 44.6 µM (inactive) | GI50 (NCI/ADR-RES): > 100 µM (inactive) | GI50 (TK-10): > 100 µM (inactive) | GI50 (M14): > 100 µM (inactive) | GI50 (CCRF-CEM): 24.5 µM (inactive) | GI50 (IGROV-1): 87.7 µM (inactive) | GI50 (HCC 2998): > 100 µM (inactive) | GI50 (DU-145): 73.6 µM (inactive) | GI50 (HCT-15): 62.8 µM | GI50 (T47D): > 100 µM (inactive) | GI50 (NCI-H460): 41.3 µM (inactive) | GI50 (SF-295): 55.1 µM (inactive) | GI50 (SR): 21.3 µM (inactive) | GI50 (NCI-H522): 56.2 µM (inactive) | GI50 (K562): 36 µM (inactive) | GI50 (U-251): > 100 µM (inactive) | GI50 (EKVX): 32.4 µM (inactive) | GI50 (NCI-H226): 64.7 µM (inactive) | GI50 (HCT-116): 20.2 µM (inactive) | GI50 (CAKI-1): 98.2 µM (inactive) | GI50 (ACHN): 37.8 µM (inactive) | GI50 (SK-MEL-5): 44.3 µM (inactive) | GI50 (OVCAR-5): 48.6 µM (inactive) | GI50 (SF-539): > 100 µM (inactive) | GI50 (HL-60): 27.9 µM (inactive) | GI50 (PC-3): 37.2 µM (inactive) | GI50 (786-0): > 100 µM (inactive) | GI50 (KM12): 76.6 µM (inactive) | GI50 (SNB-19): > 100 µM (inactive) | GI50 (MDA-MB-435): 86.7 µM (inactive) | GI50 (SK-OV-3): > 100 µM (inactive) | GI50 (UACC-257): 26.1 µM (inactive) | GI50 (A549): 38.9 µM (inactive) | GI50 (HOP-62): 48.4 µM (inactive) | GI50 (OVCAR-3): 19.6 µM (inactive) | GI50 (HT-29): 29 µM (inactive) | GI50 (Malme-3M): 34 µM (inactive) | GI50 (SW-620): > 100 µM (inactive) | GI50 (RXF 393): 31.8 µM (inactive) | GI50 (Hs-578T): > 100 µM (inactive) | GI50 (SK-MEL-2): 22.6 µM (inactive) | GI50 (SK-MEL-28): > 100 µM (inactive) | GI50 (SN12C): > 100 µM (inactive) | GI50 (OVCAR-8): > 100 µM (inactive) | GI50 (UACC-62): > 100 µM (inactive) | GI50 (A498): 57 µM (inactive) | GI50 (SNB-75): 61.9 µM (inactive) | GI50 (OVCAR-4): 80.5 µM (inactive) | GI50 (UO-31): 28.8 µM (inactive) | GI50 (MCF7): 36.1 µM (inactive) | GI50 (MDA-MB-231): > 100 µM (inactive) | GI50 (MDA-N): > 100 µM (inactive)
